Reference: US10053454B2 (Bristol-Myers Squibb Company, priority 2013, dated 2018)

The compounds below were run against BRD4 (Homo sapiens, UniProt O60885) (assay: Time Resolved Fluorescence Resonance Energy Transfer (TR-FRET) binding assay). Settings: one of the FRET assays described (BRD4 construct not given).
`COc1ccc2c(c1)c1cc(-c3c(C)noc3C)cc(C(N)=O)c1n2S(C)(=O)=O` [Example 72, 3-(3,5-dimethylisoxazol-4-yl)-6-methoxy-9-(methylsulfonyl)-9H-carbazole-1-carboxamide] gave an IC50 of less than 500 nM.
`CCNC(=O)n1c2cc(C(=O)N3C[C@@H](C)O[C@@H](C)C3)ccc2c2cc(-c3c(C)noc3C)cc(C(N)=O)c21` [Example 61, 3-(3,5-dimethyl-4-isoxazolyl)-7-(cis-2,6-dimethylmorpholine-4-carbonyl)-N9-ethyl-9H-carbazole-1,9-dicarboxamide] showed an IC50 of less than 5000 nM.
For `CCNC(=O)Nc1ccc2c3cc(-c4c(C)noc4C)cc(C(N)=O)c3n(CC3CC3)c2c1` [Example 31, 9-(cyclopropylmethyl)-3-(3,5-dimethyl-4-isoxazolyl)-7-((ethylcarbamoyl)amino)-9H-carbazole-1-carboxamide], the IC50 was less than 500 nM.
`Cc1noc(C)c1-c1cc(C(N)=O)c2c(c1)c1c(C(=O)N3C[C@@H](C)O[C@@H](C)C3)cc(C(F)(F)F)cc1n2S(=O)(=O)C1CC1` [Example 74, 9-(cyclopropylsulfonyl)-3-(3,5-dimethyl-4-isoxazolyl)-5-((cis-2,6-dimethyl-4-morpholinyl)carbonyl)-7-(trifluoromethyl)-9H-carbazole-1-carboxamide] gave an IC50 of less than 500 nM.
`Cc1noc(C)c1-c1cc(C(N)=O)c2c(c1)c1c(C(=O)N3C[C@@H](C)O[C@@H](C)C3)cc(OC(F)(F)F)cc1n2S(C)(=O)=O` [Example 76, 3-(3,5-dimethyl-4-isoxazolyl)-5-((cis-2,6-dimethyl-4-morpholinyl)carbonyl)-9-(methylsulfonyl)-7-(trifluoromethoxy)-9H-carbazole-1-carboxamide] showed an IC50 of less than 50 nM.
`Cc1noc(C)c1-c1cc(C(N)=O)c2c(c1)c1ccc(C(=O)N3CC(F)C3)cc1n2S(C)(=O)=O` [Example 7, 3-(3,5-dimethyl-4-isoxazolyl)-7-((3-fluoro-1-azetidinyl)carbonyl)-9-(methylsulfonyl)-9H-carbazole-1-carboxamide] showed an IC50 of less than 50 nM.
Work on `Cc1noc(C)c1-c1cc(C(N)=O)c2c(c1)c1c(C(=O)N3C[C@@H](C)O[C@@H](C)C3)cc(C(F)(F)F)cc1n2S(C)(=O)=O` [Example 73, 3-(3,5-dimethyl-4-isoxazolyl)-5-((cis-2,6-dimethyl-4-morpholinyl)carbonyl)-9-(methylsulfonyl)-7-(trifluoromethyl)-9H-carbazole-1-carboxamide] yielded an IC50 of less than 500 nM.
In the case of `CNc1ccc2c3cc(-c4c(C)noc4C)cc(C(N)=O)c3n(CC3CC3)c2c1` [Example 37, 9-(cyclopropylmethyl)-3-(3,5-dimethyl-4-isoxazolyl)-7-(methylamino)-9H-carbazole-1-carboxamide], the IC50 is reported as less than 500 nM.
For `Cc1noc(C)c1-c1cc(C(N)=O)c2c(c1)c1ccc(N3CCCS3(=O)=O)cc1n2CC1CC1` [Example 71, 9-(cyclopropylmethyl)-3-(3,5-dimethyl-4-isoxazolyl)-7-(1,1-dioxido-2-isothiazolidinyl)-9H-carbazole-1-carboxamide], the IC50 was less than 50 nM.
`Cc1noc(C)c1-c1cc(C(N)=O)c2c(c1)c1ccc(-c3ccncc3)cc1n2CC1CC1` [Example 36, 9-(cyclopropylmethyl)-3-(3,5-dimethyl-4-isoxazolyl)-7-(4-pyridinyl)-9H-carbazole-1-carboxamide] gave an IC50 of less than 500 nM.
`Cc1noc(C)c1-c1cc(C(N)=O)c2c(c1)c1ccc(CN3CCOCC3)cc1n2CC1CC1` [Example 51, 9-(cyclopropylmethyl)-3-(3,5-dimethyl-4-isoxazolyl)-7-(4-morpholinylmethyl)-9H-carbazole-1-carboxamide] showed an IC50 of less than 500 nM.
Compound `Cc1nocc1-c1cc(C(N)=O)c2c(c1)c1ccc(C(=O)N3C[C@@H](C)O[C@@H](C)C3)cc1n2CC1CC1` [Example 56, 9-(cyclopropylmethyl)-7-((cis-2,6-dimethyl-4-morpholinyl)carbonyl)-3-(3-methyl-4-isoxazolyl)-9H-carbazole-1-carboxamide] has an IC50 of less than 500 nM.
In the case of `CCOC(=O)Nc1ccc2c3cc(-c4c(C)noc4C)cc(C(N)=O)c3n(CC3CC3)c2c1` [Example 32, Ethyl(8-carbamoyl-9-(cyclopropylmethyl)-6-(3,5-dimethyl-4-isoxazolyl)-9H-carbazol-2-yl)carbamate], the IC50 is reported as less than 5000 nM.
Compound `Cc1noc(C)c1-c1cc(C(N)=O)c2c(c1)c1ccc(S(C)(=O)=O)cc1n2CC1CC1` [Example 80, 9-(cyclopropylmethyl)-3-(3,5-dimethylisoxazol-4-yl)-7-(methylsulfonyl)-9H-carbazole-1-carboxamide] has an IC50 of less than 50 nM.
`Cc1noc(C)c1-c1cc(C(N)=O)c2c(c1)c1ccc(C(=O)N3CCOCC3)cc1n2S(C)(=O)=O` [Example 5, 3-(3,5-dimethyl-4-isoxazolyl)-9-(methylsulfonyl)-7-(4-morpholinylcarbonyl)-9H-carbazole-1-carboxamide] gave an IC50 of less than 50 nM.
Work on `Cc1noc(C)c1-c1cc(C(N)=O)c2c(c1)c1ccc(N3CCCCC3=O)cc1n2CC1CC1` [Example 42, 9-(cyclopropylmethyl)-3-(3,5-dimethyl-4-isoxazolyl)-7-(2-oxo-1-piperidinyl)-9H-carbazole-1-carboxamide] yielded an IC50 of less than 500 nM.
With `Cc1noc(C)c1-c1cc(C(N)=O)c2c(c1)c1ccc(N(c3nccs3)c3nccs3)cc1n2CC1CC1` [Example 30, 9-(cyclopropylmethyl)-3-(3,5-dimethyl-4-isoxazolyl)-7-(di-1,3-thiazol-2-ylamino)-9H-carbazole-1-carboxamide] the IC50 was less than 500 nM.
With `Cc1noc(C)c1-c1cc(C(N)=O)c2c(c1)c1ccc(C(=O)N3CCC(F)(F)CC3)cc1n2S(C)(=O)=O` [Example 9, 7-((4,4-difluoro-1-piperidinyl)carbonyl)-3-(3,5-dimethyl-4-isoxazolyl)-9-(methylsulfonyl)-9H-carbazole-1-carboxamide] the IC50 was less than 50 nM.
In the case of `COc1ccc2c3cc(-c4c(C)noc4C)cc(C(N)=O)c3n(CC3CC3)c2c1` [Example 49, 9-(cyclopropylmethyl)-3-(3,5-dimethyl-4-isoxazolyl)-7-methoxy-9H-carbazole-1-carboxamide], the IC50 is reported as less than 50 nM.
`Cc1noc(C)c1-c1cc(C(N)=O)c2c(c1)c1ccc(NC(=O)OC(C)(C)C)cc1n2CC1CC1` [Example 27, tert-butyl(8-carbamoyl-9-(cyclopropylmethyl)-6-(3,5-dimethyl-4-isoxazolyl)-9H-carbazol-2-yl)carbamate] showed an IC50 of less than 500 nM.
With `Cc1noc(C)c1-c1cc(C(N)=O)c2c(c1)c1ccc(C(=O)N3CCC(F)CC3)cc1n2S(C)(=O)=O` [Example 8, 3-(3,5-dimethyl-4-isoxazolyl)-7-((4-fluoro-1-piperidinyl)carbonyl)-9-(methylsulfonyl)-9H-carbazole-1-carboxamide] the IC50 was less than 500 nM.
`Cc1noc(C)c1-c1cc(C(N)=O)c2c(c1)c1ccc(C(=O)N3CC(F)C3)cc1n2S(=O)(=O)C1CC1` [Example 21, 9-(cyclopropylsulfonyl)-3-(3,5-dimethyl-4-isoxazolyl)-7-((3-fluoro-1-azetidinyl)carbonyl)-9H-carbazole-1-carboxamide] was tested, and the IC50 was less than 50 nM.
`Cc1noc(C)c1-c1cc(C(N)=O)c2c(c1)c1ccc(C(=O)N3CC(F)(F)C3)cc1n2S(=O)(=O)C1CC1` [Example 24, 9-(cyclopropylsulfonyl)-7-((3,3-difluoro-1-azetidinyl)carbonyl)-3-(3,5-dimethyl-4-isoxazolyl)-9H-carbazole-1-carboxamide] gave an IC50 of less than 50 nM.
Work on `Cc1noc(C)c1-c1cc(C(N)=O)c2c(c1)c1ccc(C(C)(C)O)cc1n2S(=O)(=O)C1CC1` [Example 55, 9-(cyclopropylsulfonyl)-3-(3,5-dimethyl-4-isoxazolyl)-7-(1-hydroxy-1-methylethyl)-9H-carbazole-1-carboxamide] yielded an IC50 of less than 50 nM.
Compound `CC(=O)n1c2cc(C(=O)N3C[C@@H](C)O[C@@H](C)C3)ccc2c2cc(-c3c(C)noc3C)cc(C(N)=O)c21` [Example 60, 9-acetyl-3-(3,5-dimethyl-4-isoxazolyl)-7-(cis-2,6-dimethylmorpholine-4-carbonyl)-9H-carbazole-1-carboxamide] has an IC50 of less than 5000 nM.
`Cc1noc(C)c1-c1cc(C#N)c2c(c1)c1ccc(C(=O)N3CCOCC3)cc1n2CC1CC1` [Example 59, 9-(cyclopropylmethyl)-3-(3,5-dimethyl-4-isoxazolyl)-7-(4-morpholinylcarbonyl)-9H-carbazole-1-carbonitrile] was tested, and the IC50 was less than 5000 nM.
For `Cc1noc(C)c1-c1cc(C(N)=O)c2c(c1)c1ccc(C(=O)N3CCS(=O)(=O)CC3)cc1n2S(C)(=O)=O` [Example 15, 3-(3,5-dimethyl-4-isoxazolyl)-7-((1,1-dioxido-4-thiomorpholinyl)carbonyl)-9-(methylsulfonyl)-9H-carbazole-1-carboxamide], the IC50 was less than 5000 nM.
`Cc1noc(C)c1-c1cc(-c2nc[nH]n2)c2c(c1)c1ccc(C(=O)N3CCOCC3)cc1n2CC1CC1` [Example 70, 9-(cyclopropylmethyl)-3-(3,5-dimethyl-4-isoxazolyl)-7-(4-morpholinylcarbonyl)-1-(1H-1,2,4-triazol-3-yl)-9H-carbazole] gave an IC50 of less than 5000 nM.
For `Cc1noc(C)c1-c1cc(C(N)=O)c2c(c1)c1cc(S(C)(=O)=O)ccc1n2CC1CC1` [Example 78, 9-(cyclopropylmethyl)-3-(3,5-dimethyl-4-isoxazolyl)-6-(methylsulfonyl)-9H-carbazole-1-carboxamide], the IC50 was less than 50 nM.
`Cc1nnn(C)c1-c1cc(C(N)=O)c2c(c1)c1ccc(C(=O)N3C[C@@H](C)O[C@@H](C)C3)cc1n2CC1CC1` [Example 84, 9-(cyclopropylmethyl)-7-((cis-2,6-dimethyl-4-morpholinyl)carbonyl)-3-(1,4-dimethyl-1H-1,2,3-triazol-5-yl)-9H-carbazole-1-carboxamide] showed an IC50 of less than 500 nM.
`Cc1noc(C)c1-c1cc(C(N)=O)c2c(c1)c1ccc(C(=O)N3C(C)(C)CC(O)CC3(C)C)cc1n2S(C)(=O)=O` [Example 16, 3-(3,5-dimethyl-4-isoxazolyl)-7-((4-hydroxy-2,2,6,6-tetramethyl-1-piperidinyl)carbonyl)-9-(methylsulfonyl)-9H-carbazole-1-carboxamide] gave an IC50 of less than 50 nM.
Work on `Cc1noc(C)c1-c1cc(C(N)=O)c2c(c1)c1ccc(C(=O)N3CCC(F)(F)CC3)cc1n2S(=O)(=O)C1CC1` [Example 26, 9-(cyclopropylsulfonyl)-7-((4,4-difluoro-1-piperidinyl)carbonyl)-3-(3,5-dimethyl-4-isoxazolyl)-9H-carbazole-1-carboxamide] yielded an IC50 of less than 50 nM.
